Reference: patent US20200188319A1, “Use Of Inhaled Nitric Oxide For The Treatment Of Pulmonary Hypertension Associated With Lung Disease” (Bellerophon Pulse Technologies LLC, priority 2017, published 2020)
“And” between values parts separate entries of the source, which are not always exact repeats. Equal entries are not always repeated. Where two headings read alike, the source gives them in different places.

Columns and labels:
[1] = tested on: PH-COPD subjects; assay: Acute iNO: blood vessel volume by HRCT in PH-COPD subjects; format: in vivo, human; details: acute assessment
Excerpt: (§1) This study is an open label Phase 1 study of iNO therapy in subjects with PH-COPD (PULSE-COPD-007; NCT03135860). The primary outcome of this study is the change in lobar blood volume at total lung capacity with iNO and the change in lobar blood volume with iNO after 4 weeks of treatment with iNO as measured by HRCT.
(§2) Subjects also had sPAP≥38 mm Hg as measured by echocardiogram, a post-bronchodilatory FEV1/FVC<0.7 and a FEV1<60% predicted. All subjects were at least 40 years old and were current or former smokers with at least 10 pack-years of tobacco cigarette smoking before study entry. All subjects also had been receiving LTOT for at least 3 months for at least 10 hours per day.
(§3) A further analysis was performed of seven PH-COPD subjects that completed 4 weeks of treatment with iNO at a dose of 30 mcg/kg IBW/hr. The 6MWD and sPAP results are also presented in FIGS. 10 and 11, respectively.

[2] = tested on: PH-IPF subjects; assay: Acute iNO: sPAP in PH-IPF subjects; format: in vivo, human
Excerpt: In Part 2 of the study the subjects needed to have severe PH, therefore PH in Part 2 was defined as sPAP≥50 mm Hg by 2-D echocardiogram. In Part 3 PH was defined as sPAP≥35 mm Hg by echocardiogram (Part 3).
(§4) The 2 subjects enrolled in Part 2 were randomly assigned for Part 2a to 1 of 2 sequences to receive iNO utilizing the NO cylinder concentration (4,880 ppm) at a dose of 75 mcg/kg IBW/hr or placebo set at a dose of 75 mcg/kg IBW/hr.
(§5) The 2 subjects enrolled in Part 3a each received three different doses of iNO utilizing NO cylinder concentration (4,880 ppm) at a dose of 5 mcg/kg IBW/hr, 10 mcg/kg IBW/hr and 30 mcg/kg IBW/hr, all with LTOT. For each dose, the change in PAP pressure and the change in cardiac output was evaluated by RHC. The investigator could decide after each dose to continue with the following dose or not.
(§6) […], the vasodilation and the hemodynamics were assessed. During the chronic phase, the focus was exercise capacity. Oxygen saturation during exercise was evaluated both at baseline as well as after 4 weeks of chronic treatment with iNO. Both the acute and chronic phases evaluated iNO doses of 30 and 75 mcg/kg IBW/hr.

[3] = tested on: PH-IPF subjects; assay: Chronic iNO: SpO2 during 6MWT in PH-IPF subjects; format: in vivo, human; details: during exercise (6MWT)
Excerpt: The secondary endpoints of Part 2b (chronic dosing) were change in 6MWT with Borg CR10 leg fatigue and dyspnea scale and SpO2, at the beginning and end of the 6MWT and symptoms evaluated using a questionnaire with after 4 weeks use of iNO at a dose of 75 mcg/kg IBW/hr and 2 weeks post discontinuation of iNO.
The secondary endpoints of Part 3b (chronic dosing) were change in 6MWT with Borg CR10 leg fatigue and dyspnea scale and SpO2, at the beginning and end of the 6MWT and symptoms evaluated using a questionnaire after 4 weeks use of iNO at a dose of 30 mcg/kg IBW/hr.
In Part 2b and Part 3b change in 6MWT with Borg CR10 leg fatigue and dyspnea scale and SpO2, at the beginning and end of the 6MWT, and a symptoms questionnaire were used to assess the effects of long term pulsed iNO administered using a pulsed NO delivery device in subjects with PH associated with IPF on LTOT.
(§7) One patient from Part 2a entered into Part 2b. During Part 2b patient receive iNO utilizing NO cylinder concentration (4,880 ppm) at a dose of 75 mcg/kg IBW/hr during 4 weeks for at least 12 hours/day.
(§8) The 2 patients from Part 3a entered Part 3b. During Part 3b, patients received iNO utilizing NO cylinder concentration (4,880 ppm) at a dose of 30 mcg/kg IBW/hr.
as §6

[4] = tested on: PH-COPD subjects; assay: Chronic iNO: sPAP by echocardiogram in PH-COPD subjects; format: in vivo, human; details: group value, FIG. 11
Excerpt: as §1, §2
(§9) The PH-COPD subjects received pulsed iNO therapy for 4 weeks for at least 12 hours/day. The iNO was administered utilizing a 4,880 ppm NO cylinder concentration.
as §3
As shown in FIG. 10, the change in 6MWD after 2 weeks of iNO therapy is +53.9 meters (p=0.02). Similarly, the change in 6MWD after 4 weeks of iNO therapy is +50.7 meters (p=0.04). In the literature, 27-54 meter improvements in 6MWD are considered clinically significant as measured by patient perceptions of improvement.

[5] = tested on: PH-IPF subjects; assay: Chronic iNO: TAPSE (RV function) in PH-IPF subjects; format: in vivo, human
Excerpt: (§10) One or more embodiments of the present invention also relate to maintaining and/or improving right ventricular (RV) function using long-term iNO therapy. Maintenance and/or improvements in RV function can be assessed by many echocardiographic measurements. One such quantitative approach to assess RV function is the measurement of the tricuspid annular plane systolic excursion (TAPSE). The TAPSE estimates RV systolic function by measuring the level of systolic excursion of the lateral tricuspid valve annulus towards the apex. An excellent correlation between the TAPSE and RV ejection fraction as assessed by radionuclide angiography has previously been established and the approach appears reproducible and proven to be a strong predictor of prognosis in heart failure. [Reference: Heart. 2006 April; 92(Suppl 1): i19-i26.]
as §7, §8
Subject 1 received pulsed iNO at a dose of 75 mcg/kg IBW/hr for 4 weeks, and Subject 3 received pulsed iNO at a dose of 30 mcg/kg IBW/hr for 4 weeks.

[6] = tested on: PH-IPF subjects; assay: Acute iNO: blood vessel volume by HRCT in PH-IPF subjects on LTOT; format: in vivo, human
Excerpt: This study was an exploratory, three-part, clinical study to assess the effect of pulsed iNO on functional pulmonary imaging parameters in subjects with PH-COPD on LTOT (Part 1) PH-IPF on LTOT (Part 2 and Part 3) (IK-7002-COPD-006; NCT02267655). The objective of this exploratory study was to examine the utility of high resolution computed tomography (HRCT) to measure changes in functional respiratory imaging parameters as a function of short term iNO administration using a pulsed NO delivery device in subjects with PH-IPF (Part 2 and Part 3) on LTOT. The primary endpoint in this exploratory study is the change from baseline in lobar blood volume at total lung capacity (TLC) after dosing with pulsed iNO (Part 1), iNO or Placebo (Part 2a) and after 4 weeks iNO treatment (Part 3b) as measured by HRCT.
This was an exploratory clinical study to evaluated the utility of HRCT to measure the pharmacodynamic effects of short term pulsed administration of iNO using a pulsed NO delivery device in subjects with PH-IPF (Part 2 and Part 3) on LTOT.
as §4, §5, §6

[7] = tested on: PH-IPF subjects; assay: Safety of iNO dose in PH-IPF subjects (PAP, RHC-monitored titration); format: in vivo, human
Description: The safety endpoints in this study were: • 1. Incidence and severity of treatment emergent adverse events (AEs), including those related to device deficiency; • 2. Incidence of MetHb levels >7.0%; • 3. New symptoms that may be due to rebound PH associated with a temporal acute withdrawal of investigational study drug (i.e., symptoms occurring within 20 minutes of acute withdrawal and including those associated with investigational medical device malfunction or failure): systemic arterial oxygen desaturation, hypoxemia, bradycardia, tachycardia, systemic hypotension, near-syncope, syncope, ventricular fibrillation, and/or cardiac arrest; • 4. New or worsening symptoms of left heart failure or pulmonary edema; and • 5. Any decrease in systemic oxygenation measured by oxygen saturation of arterial blood by pulse oximetry (SpO2), i.e., hypoxia or oxygen saturation decrease, deemed by the Investigator to be clinically significant.
The initial protocol intended that 4 subjects would be enrolled in Part 2. […] It was decided to temporarily stop recruitment. One of the 2 subjects completed 4 weeks of chronic use in Part 2b.
In the amendment a total of 2 subjects participated in Part 3. The dose in Part 3 was lower than in Part 2 and each subject was titrated to the optimum dose as determined by the investigator. […] The dose was monitored with a RHC in place. […]

[8] = tested on: pulmonary arterial hypertension (PAH); details: cited from earlier work
[9] = tested on: PH-COPD subjects; assay: Chronic iNO: six-minute walk distance (6MWD) in PH-COPD subjects; format: in vivo, human; details: seven PH-COPD subjects, group value, iNO 30 mcg/kg/IBW, FIG. 10
Excerpt: Oxygen saturation can be measured before, during or after tests that assess exercise capacity. One approach to assess exercise capacity is the six-minute walk test, which provides the 6MWD. Other measurements that can be used to assess exercise capacity include, but are not limited to, shuttle walk test, activity level, forced exercise, maximal exercise test, treadmill, bicycle and cardiopulmonary exercise test.
as §1, §2, §9
A further analysis was performed of seven PH-COPD subjects that completed 4 weeks of treatment with iNO at a dose of 30 mcg/kg IBW/hr. […]

[10] = tested on: PH-COPD subjects; assay: Chronic iNO: TAPSE in PH-COPD subjects; format: in vivo, human
Excerpt: as §10, §1, §2, §9
These subjects were diagnosed with PH-COPD and received 4 weeks of treatment with iNO at a dose of 30 mcg/kg IBW/hr. The results verify the increase in TAPSE which correlates to RV function.

[11] = iNO 30 mcg/kg IBW/hr, PH-IPF Patients 3 and 4
[12] = Average of PH-IPF Subjects 1 (75) and 3 (30 mcg/kg IBW/hr), 4 weeks
[13] = PH-IPF Subject 1, pulsed iNO 75 mcg/kg IBW/hr for 4 weeks
[14] = PH-IPF Subject 3, pulsed iNO 30 mcg/kg IBW/hr for 4 weeks
[15] = Average of four PH-COPD subjects, iNO 30 mcg/kg IBW/hr for 4 weeks

[N]=O [iNO, nitric oxide]
ventilation-vasodilation correlation ([1]; PH-COPD subjects, p=0.03, FIG. 9): significant | increase in blood vessel volume on iNO (average) ([1]; nine PH-COPD subjects, statistically significant): 4.2% | Acute Change in sPAP (%) [2, 11]: −14.3% and −23.3% | Acute Change in sPAP (%) ([2]; iNO 75 mcg/kg IBW/hr, PH-IPF Patients 1 and 2): −9.3% and −9.7% | SpO2 Nadir ([3]; 4 Weeks iNO 30 mcg/kg IBW/hr, Patient 3, baseline 83): 89 | SpO2 Average ([3]; 4 Weeks iNO 30 mcg/kg IBW/hr, Patient 3, baseline 88.9): 95.7 | SpO2 Nadir ([3]; 4 Weeks iNO 75 mcg/kg IBW/hr, Patient 1, baseline 76): 79 | SpO2 Average ([3]; 4 Weeks iNO 75 mcg/kg IBW/hr, Patient 1, baseline 89.4): 86.6 | sPAP 4 weeks after iNO therapy was discontinued ([4]; PH-COPD subjects): 58.0 mm Hg | sPAP after 4 weeks of iNO therapy ([4]; seven PH-COPD subjects, iNO 30 mcg/kg IBW/hr, baseline 60.3 mm Hg, p=0.02): 48.3 mm Hg | TAPSE % Change, Average [5, 12]: 15% | TAPSE Increase, Average [5, 12]: 3 | TAPSE 4 Week, Average ([5]; Average of PH-IPF Subjects 1 (75) and 3 (30 mcg/kg IBW/hr), 4 weeks, baseline 20): 23 | TAPSE % Change [5, 13]: 21% | TAPSE Increase [5, 13]: 3 | TAPSE 4 Week ([5]; PH-IPF Subject 1, pulsed iNO 75 mcg/kg IBW/hr for 4 weeks, baseline 14): 17 | TAPSE % Change [5, 14]: 12% | TAPSE Increase [5, 14]: 4 | TAPSE 4 Week ([5]; PH-IPF Subject 3, pulsed iNO 30 mcg/kg IBW/hr for 4 weeks, baseline 25): 28 | Acute change in blood vessel volume (%) [6, 11]: 2.8 ± 3.0% and 10.1 ± 3.4% | regional vasodilation in the lungs (targeting) ([6]; iNO 30 mcg/kg IBW/hr, Patients 3 & 4, FIGS. 7 and 8): clear targeting of the drug | overall vasodilation ([6]; iNO 30 mcg/kg IBW/hr, range over Patients 3 & 4): 2.8-10.1% | regional vasodilation in the lungs (targeting) ([6]; iNO 75 mcg/kg IBW/hr, Patients 1 & 2, FIGS. 5 and 6): little to no targeted vasodilation | overall vasodilation ([6]; iNO 75 mcg/kg IBW/hr, range over Patients 1 & 2): 14.2-34.2% | PAP after discontinuation of iNO ([7]; iNO 75 mcg/kg IBW/hr, the two IPF patients of Part 2): sudden increase in PAP after discontinuation | dose titration monitored with RHC ([7]; iNO titrated to 30 mcg/kg IBW/hr, 2 subjects of Part 3): safely | efficacy for the treatment of PAH ([8]; iNO dose 25 mcg/kg IBW/hr, same previous clinical study): inefficacious | efficacy for the treatment of PAH ([8]; iNO dose 75 mcg/kg IBW/hr, previous clinical study): effective | change in 6MWD after 2 weeks of iNO therapy ([9]; p=0.02): +53.9 meters | change in 6MWD after 4 weeks of iNO therapy ([9]; p=0.04): +50.7 meters | TAPSE % Change, Average [10, 15]: 25% | TAPSE Increase, Average [10, 15]: 4 | TAPSE 4 Week, Average ([10]; Average of four PH-COPD subjects, iNO 30 mcg/kg IBW/hr for 4 weeks, baseline 16): 20 | TAPSE after iNO therapy was discontinued ([10]; PH-COPD subjects, N=5, FIG. 12): 19.0 | TAPSE after chronic iNO therapy ([10]; PH-COPD subjects, N=7, baseline 18.8 (N=6), FIG. 12): 21.3
